Laboratory results as given in patent US9963712B2, “Gene IbENOD93 and transgenic plants using the same” (Korea University Research and Business Foundation, priority 2014, dated 2018).

Experiments:
IbENOD93 gene = assay: Regulation of IbENOD93 expression by plant hormone treatment (real-time PCR); assay type: in vivo, sweet potato; settings: 3 hours, fibrous roots of single-leaf plantlets, 25° C., dark
Protocol: To determine the transcriptional regulation of IbENOD93 gene by treatment with auxin (Indole-3-acetic acid; IAA), jasmonic acid (JA), and […] (6-benzylaminopurine; BA), real-time PCR (RT-PCR) was performed using IbENOD93-specific primers (IbENOD93(360)F 5′-[…]-3′ (SEQ ID. NO.: 9) and IbENOD93(512)R 5′-[…]-3′ (SEQ ID. NO.: 10)).
The roots of sweet potato were treated with hormones according to the following method. Sweet potato plantlets bearing a single leaf and petiole were collected from sweet potato plants and incubated in flasks filled with water for 3 weeks. After fibrous roots had developed from the distal end of the petiole, the single-leaf plantlets were incubated in various concentrations of IAA, JA, and BA solutions (0, 50, 100, 200, 500, 1000 μM) at 25° C. in the dark for 3 hours. After the hormone treatment, total RNA was extracted from the fibrous roots using the RNeasy Plant Mini Kit™ (Qiagen) and used for RT-PCR.
Total RNA (5 μg) was used for first-strand cDNA synthesis using the SuperScript III first-strand cDNA synthesis kit (Invitrogen). The resulting cDNA solution was then diluted with 30 μl of TE and used for PCR. Among a total of 20 μl, 1 μl of the synthesized cDNA was used for the RT-PCR, and KAPA SYBR FAST Master mix (KAPABIOSYSTEMS) was used for a final reaction volume of 16 μl. Real-time PCR analysis was performed using the LightCycler 480 quantification system (Roche Diagnostics) according to the manufacturer's instructions. Expression levels were normalized with β-tubulin expression amplified with 5′-[…]-3′ (SEQ ID. NO.: 11) and 5′-[…]-3′ (SEQ ID. NO.: 12) primers. Real-time PCR was performed starting with pre-denaturation at 95° C. for 10 minutes, followed by 45 cycles of denaturation at 95° C. for 10 seconds, annealing at 58° C. for 10 seconds, and extension at 72° C. for 20 seconds. Following the amplification phase, a melting curve analysis was conducted from 65° C. to 97° C. The second derivative maximum method in the LightCycler 480 quantification software (Roche Diagnostics) was used to evaluate the data.

[1] = test system: MADS-box genes (SRD1, IbMADS1); settings: upon IAA or JA treatment; Noh et al. 2010, Ku et al. 2008; cited from earlier work

| SMILES | transcript level of IbENOD93 (IbENOD93 gene; BA at 100 μM or higher) | transcript level of MADS-box genes (SRD1, IbMADS1) [1] | transcript level of IbENOD93 (IbENOD93 gene; 500 μM IAA) | transcript level of IbENOD93 (IbENOD93 gene; 200 μM JA) |
| --- | --- | --- | --- | --- |
| c1ccc(CNc2ncnc3nc[nH]c23)cc1 [BA, 6-benzylaminopurine] | increased slightly | – | – | – |
| O=C(O)Cc1c[nH]c2ccccc12 [IAA, Indole-3-acetic acid] | – | increased sharply | increased sharply | – |
| CC/C=C\C[C@H]1C(=O)CC[C@@H]1CC(=O)O [JA, jasmonic acid] | – | increased sharply | – | increased sharply |
